Test results from patent publication US20020032176A1, “CARCINOGENESIS INHIBITORS” (priority 1996, published 2002).
Where two headings read alike, the source gives them in different places.

Assays:
Raji cells = conditions: 1000 Mol ratio/TPA (20 ng = 32 pmol/ml); 48 hours
Procedure: Measurement conditions of inactivation of Epstein-Barr virus genome incidence, using the acetone extracts and the hexane extracts, are as follows. PRMI1640 added embryonic serums and antibiotics are used as the culture liquid of Raji cells, virus latent infection-human lymphotropic bulbous cells. Under this culture conditions, the rate of natural incidence of Epstein-Barr virus of early antigens are not more than 0.1%. Raji cells, adjusted at the concentration of 1×10^6 cell/ml is cultured for 48 hours at 37° C. in the above described culture liquid after adding 4 mM of n-butyric acid, 20 ng/ml of TPA and 100 μg/ml of test substance. Then cells which generated Epstein-Barr virus early antigens are detected in the indirect immunofluorescence method using serums from epipharynx cancer patients. The ratio of positive cells calculated against the control without adding testisubstance is regarded as inactivation of virus genome incidence. In addition, the same inactivation were measured as varying the concentration of the test substance to 10, μg/ml and 1 μg/ml.

[1] = system: Epstein-Barr virus early antigens in Raji cells; format: cell-based, human; conditions: 48 hours
Procedure: Epstein-Barr virus genome inactivating test is carried out as the first-stage screening test of anti-carcinogenesis promoter. In this test, inhibition of virus genome incident with tetradecanoylphorbolacetate (hereinafter called “TPA”) as its promoter, in a culture system of Raji cells is used as an indicator. The mentioned Raji cells are culture cells originated in species of […] lymph and holds Epstein-Barr virus genome inside. This method is not only rapid and quantitative but also available for detection of active substances in a small quantity.

papilloma on mouse skin = assay: Two-stage carcinogenesis inhibitory test on mouse skin (DMBA initiation, TPA promotion); format: in vivo, ICR female mice; conditions: for week after start of promotion on which the first tumor was formed: twice a week, positive control 7th week; for average number of tumors per mouse after 20 weeks: positive control 9.1; for carcinogenesis inhibitory effects (versus positive control tumors per mouse): 85 nmol test substance, after 20 weeks
Procedure: Body hair of one group of 15 ICR female mice (age 6 weeks) on their back were shaved and after 24 hours, applied (100 μg, 390 nmol) of 7,12-dimethylbenz[α]anthracene (hereinafter called “DMBA”) dissolved in acetone (0.1 ml) on their shaved skin of back as an initiation. Since one week later, each group of mice had been treated as follows:
First group: TPA (1 μg, 1.7 nmol) dissolved in acetone (0.1 ml) had been applied for 20 consecutive weeks, twice a week, as a promotion. During this treatment, additional acetone (0.1 ml) was applied on the same part one hour prior to each TPA application. (positive control group). […]
Until the 20th week since the start of a promotion by TPA application, incidence of papilloma on back of mice had been observed once a week. And the rate of mice with papilloma incidence and the average number of papilloma incidence per mouse were evaluated based on the comparison of the positive control group and the second group.
Body hair of one group of 15 ICR female mice (age 6 weeks) on their back were shaved and after 24 hours, applied ([…], 390 nmol) of 7,12-dimethylbenz[α]anthracene (hereinafter called “DMBA”) dissolved in acetone (0.1 ml) on their shaved skin of back as an initiation. Since one week later, each group of mice had been treated as follows:
Second-Fourth group: As the first group, TPA (1 μg, 1.7 nmol) dissolved in acetone (0.1 ml) had been applied for 20 consecutive weeks, twice a week, as a promotion but 85 nmol of test substance (capsanthin group) dissolved in acetone(0.1 ml) (separated by removing methanol extracts solvent), was applied one hour prior to each application instead of additional acetone. Each test substance was for Second group: Capsanthin, Third group: Capsanthin monoester, Fourth group: Capsanthin diester

[2] = 10 Mol ratio/TPA (20 ng = 32 pmol/ml)
[3] = 100 Mol ratio/TPA (20 ng = 32 pmol/ml)
[4] = 500 Mol ratio/TPA (20 ng = 32 pmol/ml)
[5] = 1000 Mol ratio/TPA (20 ng = 32 pmol/ml)
[6] = 85 nmol test substance on skin one hour prior to each TPA application

## capsanthin monoester
Raji cells
  % survival rate of Raji cells: 70%
[1]; [2]
  % inhibitory rate: 4.1%
[1]; [3]
  % inhibitory rate: 26.6%
[1]; [4]
  % inhibitory rate: 68.4%
[1]; [5]
  % inhibitory rate: 96.8%
Papilloma on mouse skin; [6]
  week after start of promotion on which the first tumor was formed: 9 week
  average number of tumors per mouse after 20 weeks: 6,5
Papilloma on mouse skin
  carcinogenesis inhibitory effects (versus positive control tumors per mouse): ~31%

## capsorubin
Raji cells
  % survival rate of Raji cells: 70%
[1]; [2]
  % inhibitory rate: 0%
[1]; [3]
  % inhibitory rate: 19.9%
[1]; [4]
  % inhibitory rate: 64.1%
[1]; [5]
  % inhibitory rate: 100%

## capsanthin diester
Raji cells
  % survival rate of Raji cells: 70%
[1]; [2]
  % inhibitory rate: 9.6%
[1]; [3]
  % inhibitory rate: 30.7%
[1]; [4]
  % inhibitory rate: 75.5%
[1]; [5]
  % inhibitory rate: 100%
Papilloma on mouse skin; [6]
  week after start of promotion on which the first tumor was formed: 9 week
  average number of tumors per mouse after 20 weeks: 4.5
Papilloma on mouse skin; 85 nmol test substance on skin one hour prior to each TPA application, 20 weeks
  mice still free from tumor formation at the end of the 20-week experiment: 13.3%
Papilloma on mouse skin
  carcinogenesis inhibitory effects (versus positive control tumors per mouse): ~45%

## CC(/C=C/C=C(C)/C=C/C(=O)[C@]1(C)C[C@@H](O)CC1(C)C)=C\C=C\C=C(C)\C=C\C=C(C)\C=C\[C@@]12O[C@@H](CC1(C)C)C[C@@]2(C)O [Capsantlim 3,6-epoxide, capsanthin 3,6-epoxide]
Raji cells
  % survival rate of Raji cells: 70%
[1]; [2]
  % inhibitory rate: 5.4%
[1]; [3]
  % inhibitory rate: 20.8%
[1]; [4]
  % inhibitory rate: 67.2%
[1]; [5]
  % inhibitory rate: 100%

## CC1=C(/C=C/C(C)=C/C=C/C(C)=C/C=C/C=C(C)/C=C/C=C(C)/C=C/C2=C(C)CCCC2(C)C)C(C)(C)CCC1 [β-Carotene, reference compound]
Raji cells
  % survival rate of Raji cells: 70%
[1]; [2]
  % inhibitory rate: 0%
[1]; [3]
  % inhibitory rate: 10.6%
[1]; [4]
  % inhibitory rate: 75.0%
[1]; [5]
  % inhibitory rate: 97.5%

## capsorubin diester
Raji cells
  % survival rate of Raji cells: 70%
[1]; [2]
  % inhibitory rate: 7.2%
[1]; [3]
  % inhibitory rate: 28.0%
[1]; [4]
  % inhibitory rate: 73.9%
[1]; [5]
  % inhibitory rate: 100%

## CC1=C(/C=C/C(C)=C/C=C/C(C)=C/C=C/C=C(C)/C=C/C=C(C)/C=C/C(=O)[C@]2(C)C[C@@H](O)CC2(C)C)C(C)(C)C[C@H](O)C1 [Capsanthin, capsanthin]
Raji cells
  % survival rate of Raji cells: 70%
[1]; [2]
  % inhibitory rate: 0%
[1]; [3]
  % inhibitory rate: 17.6%
[1]; [4]
  % inhibitory rate: 59.7%
[1]; [5]
  % inhibitory rate: 91.4%
Papilloma on mouse skin; [6]
  week after start of promotion on which the first tumor was formed: 7 week
  average number of tumors per mouse after 20 weeks: 7.2
Papilloma on mouse skin
  carcinogenesis inhibitory effects (versus positive control tumors per mouse): approximately 23%

## cucurbitaxanthin A-3′ esters [Cucurbitaxanthin-A-3′-ester]
Raji cells
  % survival rate of Raji cells: 70%
[1]; [2]
  % inhibitory rate: 0%
[1]; [3]
  % inhibitory rate: 13.8%
[1]; [4]
  % inhibitory rate: 61.0%
[1]; [5]
  % inhibitory rate: 100%
